Measured values reported in US8722649B2, “Alpha-chloro and alpha-bromo phosphonate analogs of lysophosphatidic acid and methods of making and using thereof” (University of Utah Research Foundation, priority 2007, dated 2014).
Where two headings read alike, the source gives them in different places.

Tests used:
recombinant ATX-HA = biological target: T1, recombinant ATX-HA (Homo sapiens, UniProt Q13822); experiment: Autotaxin assay (FS-3 hydrolysis); type: biochemical; conditions: for Inhibition (%) of autotaxin (ATX) phosphodiesterase activity / inhibition at 10 µM: FS-3 substrate
T1 construct: HA
Method: Autotaxin Assay. This assay utilizes FS-3 (Echelon Biosciences, Inc. Salt Lake City, Utah) as substrate and recombinant ATX-HA. For analysis, 50 μl of ATX-HA (0.25 μg) in assay buffer (Tris 50 mM, NaCl 140 mM, KCl 5mM, CaCl2 1 mM, MgCl2 1 mM, pH 8.0) was mixed with 25 μl of FS-3 (1 μM final concentration in assay buffer) and 25 μl of test compound dissolved in assay buffer containing 1:1.5 bovine serum albumin in 96-well plate. FS-3 fluorescence was monitored using FLEXstation fluorescence plate reader at a time zero and after 2 hours of incubation at 37° C. at excitation and emission wavelengths of 485 nm and 538 nm, respectively. Data was normalized to the corresponding vehicle control and the mean±standard deviation of triplicate wells were expressed as percent ATX inhibition. IC50, and Ki values were calculated as described.

human LPA2 = biological target: T2, human LPA2 (Homo sapiens, UniProt Q9HBW0); experiment: Ca2+ mobilization assay, LPA2; type: cell-based; conditions: for EC50: RH7777 cells stably expressing LPA2, agonist mode; for LPA2 (Emax): Emax = (maximal efficacy of compound/maximal efficacy of LPA 18:1) × 100; for LPA2 ligand type: agonist/antagonist in words
T2 construct: expressed in transfected cells
Method: (§1) Receptor activation using Ca^2+ mobilization assay for diastereomers of 1 (also represented as 19b). The rat hepatoma (RH7777) cell lines individually expressing either LPA1, LPA2, LPA3 or LPA5 receptors and Chinese hamster ovary (CHO) cell line were analyzed to examine agonism and antagonism. […] CHO cells stably expressing either vector or LPA4 were kindly gifted from Dr. Shimizu (University of Tokyo, Tokyo, Japan).
(§2) Stable transformants of LPA1/2/3 receptors. RH7777 cells stably expressing each receptor were plated onto poly-L-lysine (PLL) (0.1 mg/mL)-coated black-wall clear-bottom 96-well plates (Corning Incorporated Life Sciences, Acton, Mass.) at a density of 5×10^4 cells/well and cultured overnight. The following day, the culture medium was replaced with modified Krebs buffer (120 mM NaCl, 5 mM KCl, 0.62 mM MgSO4, 1.8 mM CaCl2, 10 mM HEPES, 6 mM glucose, pH 7.4), and the cells were serum starved for 6 h. Subsequently, cells were loaded with Fura-2 AM (Invitrogen, Carlsbad, Calif.) for 35 min in modified Krebs buffer containing 2% (v/v) pluronic acid.
(§3) After incubating the cells with Fura-2 AM, the cells were rinsed with Krebs buffer and changes in the intracellular Ca^2+ concentration were monitored by determining the ratio of emitted light intensities at 520 nm in response to excitation at 340 and 380 nm using FLEXstation II (Molecular Devices, Sunnyvale, Calif.). Each well was monitored for 80-120 sec. For testing agonist activity of the compounds, the test compounds were added automatically after 15 sec of baseline measurement. […] Each test was performed in quadruplicate. EC50, IC50, and Ki values were calculated by fitting a sigmoid function to data points with the nonlinear curve-fitting feature of KaleidaGraph (Synergy Software, Essex Junction, Vt.).
(§4) Receptor activation using Ca^2+ mobilization assay. The assay for mobilization of intracellular Ca^2+ was performed as described. Briefly, rat hepatoma RH7777 cells stably expressing human LPA1, LPA2, or LPA3, and CHO cells stably expressing LPA4, were loaded with Fura-2 AM (Molecular Probes). Using a FLEXStation (Molecular Devices, Sunnyvale, Calif.), changes in intracellular Ca^2+ concentration were monitored. Ligand-induced changes in fluorescence were monitored for 80-120 seconds. Ca^2+ transients were quantified automatically by calculating the difference between maximum and baseline ratio values for each sample. […] Each test was performed in quadruplicate. EC50, IC50, and Ki values were calculated as described. The ligand properties of the compounds were evaluated using Ca^2+ mobilization assay for assessing the activation/inhibition of LPA1, LPA2, and LPA3 expressed in RH7777 cells and LPA4 expressed in CHO cells.

human LPA3 = biological target: T3, human LPA3 (Homo sapiens, UniProt Q9UBY5); experiment: Ca2+ mobilization assay, LPA3; type: cell-based; conditions: for EC50: RH7777 cells stably expressing LPA3, agonist mode; for LPA3 (Emax): Emax = (maximal efficacy of compound/maximal efficacy of LPA 18:1) × 100; for LPA3 ligand type: agonist/antagonist in words
T3 construct: expressed in transfected cells
T3 sequence (Q9UBY5 1-353): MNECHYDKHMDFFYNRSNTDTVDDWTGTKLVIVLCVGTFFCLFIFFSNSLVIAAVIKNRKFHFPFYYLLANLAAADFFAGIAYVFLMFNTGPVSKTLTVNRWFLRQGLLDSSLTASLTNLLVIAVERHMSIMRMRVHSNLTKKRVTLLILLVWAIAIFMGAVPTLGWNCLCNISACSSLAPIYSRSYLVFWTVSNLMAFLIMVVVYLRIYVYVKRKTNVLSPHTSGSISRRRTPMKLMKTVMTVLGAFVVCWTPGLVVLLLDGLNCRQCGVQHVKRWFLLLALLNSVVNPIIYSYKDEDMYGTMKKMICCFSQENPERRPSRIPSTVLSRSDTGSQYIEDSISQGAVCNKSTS
Method: as §1, §2, §3, §4

[1] = 10 μM, read-out: ATX Inhibition (Table 2)
[2] = antagonist mode vs 10 nM LPA, PA = partial antagonist, read-out: LPA2 IC50
[3] = antagonist mode vs 10 nM LPA, read-out: LPA2 (Ki)
[4] = diastereomer study, RH7777 cells, read-out: LPA2 IC50 (Table 2)
[5] = diastereomer study, RH7777 cells, read-out: LPA2 Ki (Table 2)
[6] = antagonist mode vs 200 nM LPA, read-out: LPA3 (Ki)
[7] = 10.0 μM, preliminary single-dose screen
[8] = diastereomer study, RH7777 cells, read-out: LPA3 IC50 (Table 2)
[9] = diastereomer study, RH7777 cells, read-out: LPA3 Ki (Table 2)

T2 sequence (Q9HBW0 whole entry): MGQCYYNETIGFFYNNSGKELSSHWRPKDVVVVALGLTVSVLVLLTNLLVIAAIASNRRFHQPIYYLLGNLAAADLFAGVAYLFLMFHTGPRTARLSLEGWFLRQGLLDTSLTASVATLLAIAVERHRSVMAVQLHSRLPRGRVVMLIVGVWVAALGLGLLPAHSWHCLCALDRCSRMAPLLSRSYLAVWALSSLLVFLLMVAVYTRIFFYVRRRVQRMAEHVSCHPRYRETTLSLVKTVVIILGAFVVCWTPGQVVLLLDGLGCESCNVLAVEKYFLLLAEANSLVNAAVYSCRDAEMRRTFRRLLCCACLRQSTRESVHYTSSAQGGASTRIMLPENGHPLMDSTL

SMILES: CCCCCCCCCCCCCCCC(=O)OC[C@@H](O)CC(Br)P(=O)(O)O (mixture of isomers) [Compound 1, [1-Bromo-3(S)-hydroxyl-4-(palmitoyloxy)butyl]-phosphonate]
- Inhibition (%) of autotaxin (ATX) phosphodiesterase activity (recombinant ATX-HA; 10.0 μM, preliminary single-dose screen, listed as 19b): 93.7 ± 2.0%
- inhibition at 10 µM (recombinant ATX-HA; 10.0 μM, preliminary single-dose screen, read-out: Inhibition (%) of autotaxin (ATX) phosphodiesterase activity): > 90%
- inhibition at 10 µM (recombinant ATX-HA; [1]): 102 ± 2.7%
- EC50 (human LPA2): > 30000 nM
- IC50 (human LPA2; [2]): 1420 ± 83 nM
- Ki (human LPA2; [3]): 304 nM
- IC50 (human LPA2; [4]): 468 nM
- Ki (human LPA2; [5]): 245 nM
- EC50 (human LPA3): > 30000 nM
- Ki (human LPA3; [6]): 380 nM
- inhibition at 30 µM (human LPA3; at 30 μM (200 nM LPA)): 71.3%
- IC50 (human LPA3; read-out: LPA3 IC50): 1160 ± 259 nM

SMILES: CCCCCCCCC=CCCCCCCCC(=O)OCC(O)CC(O)P(=O)([O-])O.[Na+] (mixture of isomers) [Compound 22a, reference compound]
- Inhibition (%) of autotaxin (ATX) phosphodiesterase activity (recombinant ATX-HA; [7]): 74.7%
- LPA2 (Emax) (human LPA2): (71.9 ± 6.0)
- EC50 (human LPA2): > 2160 nM
- LPA3 (Emax) (human LPA3): (116 ± 9.5)
- EC50 (human LPA3): 393 ± 89 nM

SMILES: CCCCCCCCCCCCCCCC(=O)OCC(O)CC(O)P(=O)([O-])O.[Na+] (mixture of isomers) [Compound 22b, reference compound]
- Inhibition (%) of autotaxin (ATX) phosphodiesterase activity (recombinant ATX-HA; [7]): 54.1%
- EC50 (human LPA2): > 30000 nM
- EC50 (human LPA3): > 30000 nM

SMILES: CCCCCCCCCCCCCCCC(=O)OC[C@@H](O)C[C@@H](Br)P(=O)(O)O [Compound 1a]
- inhibition at 10 µM (recombinant ATX-HA; [1]): 98.1 ± 2.3%
- LPA2 ligand type (human LPA2): Antagonist
- IC50 (human LPA2; [4]): 288 nM
- Ki (human LPA2; [5]): 250 nM
- LPA3 ligand type (human LPA3): Antagonist
- IC50 (human LPA3; [8]): 4440 nM
- Ki (human LPA3; [9]): 1830 nM

SMILES: CCCCCCCCCCCCCCCC(=O)OC[C@@H](O)C[C@H](Br)P(=O)(O)O [Compound 1b]
- inhibition at 10 µM (recombinant ATX-HA; [1]): 99.4 ± 2.7%
- IC50 (recombinant ATX-HA; 0.3 to 10 μM, FS-3 hydrolysis, read-out: ATX apparent IC50): ~300 nM
- LPA2 ligand type (human LPA2): Antagonist
- IC50 (human LPA2; [4]): 275 nM
- Ki (human LPA2; [5]): 241 nM
- LPA3 ligand type (human LPA3): Antagonist
- IC50 (human LPA3; [8]): 2090 nM
- Ki (human LPA3; [9]): 623 nM

SMILES: CCCCCCCC/C=C\CCCCCCCC(=O)OCC(O)CCP(=O)(O)O (stereo not shown) [Compound 20a, reference compound]
- Inhibition (%) of autotaxin (ATX) phosphodiesterase activity (recombinant ATX-HA; [7]): 99.8%
- LPA2 (Emax) (human LPA2): (94.7 ± 4.3)
- EC50 (human LPA2): > 281 nM
- LPA3 (Emax) (human LPA3): (63.5 ± 4.8)
- EC50 (human LPA3): > 1710 nM

SMILES: CCCCCCCCCCCCCCCC(=O)OC[C@@H](O)CCP(=O)([O-])O.[Na+] [Compound 20b, reference compound]
- Inhibition (%) of autotaxin (ATX) phosphodiesterase activity (recombinant ATX-HA; [7]): 60.6 ± 4.6%
- EC50 (human LPA2): > 30000 nM
- IC50 (human LPA2; [2]): 2590 ± 875 nM
- Ki (human LPA2; [3]): 1300 nM
- EC50 (human LPA3): > 30000 nM
- IC50 (human LPA3; antagonist mode vs 200 nM LPA, PA = partial antagonist, read-out: LPA3 IC50): 2560 ± 1160 nM
- Ki (human LPA3; [6]): 961 nM

SMILES: CCCCCCCCCCCCCCCC(=O)OCC(O)COP(=O)(O)O (stereo not shown) [LPA (16:0), reference compound]
- Inhibition (%) of autotaxin (ATX) phosphodiesterase activity (recombinant ATX-HA; [7]): 38.1 ± 3.4%
- LPA2 (Emax) (human LPA2): (100.3 ± 1.9)
- EC50 (human LPA2): 55.1 ± 4.3 nM
- LPA3 (Emax) (human LPA3): (71.2 ± 2.9)
- EC50 (human LPA3): 1530 ± 194 nM
